These results are taken from US20230295200A1 (REGENTS OF THE UNIVERSITY OF MICHIGAN, priority 2022, published 2023).

The target of the assay is T1, STAT5A (Homo sapiens, UniProt P42229).
T1 sequence (P42229 1-794): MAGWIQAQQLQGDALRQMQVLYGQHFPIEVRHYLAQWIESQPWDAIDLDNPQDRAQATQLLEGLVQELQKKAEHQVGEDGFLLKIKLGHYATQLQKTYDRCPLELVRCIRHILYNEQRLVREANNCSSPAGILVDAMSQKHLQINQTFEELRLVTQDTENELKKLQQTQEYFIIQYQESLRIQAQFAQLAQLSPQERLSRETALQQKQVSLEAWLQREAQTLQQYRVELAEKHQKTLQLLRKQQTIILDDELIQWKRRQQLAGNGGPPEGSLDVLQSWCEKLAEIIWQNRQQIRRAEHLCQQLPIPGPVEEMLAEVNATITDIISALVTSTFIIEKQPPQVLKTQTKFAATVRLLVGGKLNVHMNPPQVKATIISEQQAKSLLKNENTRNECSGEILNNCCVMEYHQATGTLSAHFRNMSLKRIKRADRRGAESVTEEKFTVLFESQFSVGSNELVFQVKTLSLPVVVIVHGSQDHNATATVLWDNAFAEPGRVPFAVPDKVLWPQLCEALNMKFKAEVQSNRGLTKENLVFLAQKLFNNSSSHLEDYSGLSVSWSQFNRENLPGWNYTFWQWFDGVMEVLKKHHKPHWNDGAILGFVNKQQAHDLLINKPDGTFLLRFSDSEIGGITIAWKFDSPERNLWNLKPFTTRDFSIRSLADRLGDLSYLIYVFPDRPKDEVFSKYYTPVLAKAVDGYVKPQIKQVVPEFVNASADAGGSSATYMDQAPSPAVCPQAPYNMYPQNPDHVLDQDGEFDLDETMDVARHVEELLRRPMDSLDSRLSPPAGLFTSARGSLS
Description: Fluorescence polarization (FP) binding assay, STAT5A. Conditions: FP competition, 5 nM fluorescein-labeled tracer, 200 nM protein, PBS pH7.4. How it is done: Evaluation of the activity of the inhibitors may be accomplished by fluorescence polarization (FP) experiments. A representative general protocol is the following:
Fluorescence polarization (FP) experiments are performed in black round-bottom plates using the CLARIOstar microplate reader. To each well, fluorescein-labeled tracer and STAT5 or STAT6 protein are added in assay buffer. […] The inhibition constants are determined as the concentration of the STAT5 or STAT6 at which 50% of the ligand is bound.
Fluorescence polarization (FP) experiments were performed in 96-well, black round-bottom plates (Microfluor 2, Fisher Scientific) using the CLARIOstar microplate reader (BMG Labtech). To each well, 5 nM of fluoresceinlabeled tracer and 200 nM of STAT5 and/or STAT6 protein were added to a final volume of 100 μl in the assay buffer (PBS pH7.4+0.01% BGG+0.01% Tween-20, 2 mM DTT). The plate was mixed on a shaker for 15 m and incubated at room temperature for 1 h to reach equilibrium. […] All experimental data were analyzed using Prism 8.0 software (GraphPad Software), and the inhibition constants were determined by nonlinear curve fitting as the concentration of the STAT5 and/or STAT6 at which 50% of the ligand is bound.
Consider `CC(C)(C)[C@H](NC(=O)c1cc2cc(C(F)(F)P(=O)(O)O)ccc2s1)C(=O)N1CCC[C@H]1C(=O)Nc1ncc(CO)s1` [Compound 248, (difluoro(2-(((S)-1-((S)-2-((5-(hydroxymethyl)thiazol-2-yl)carbamoyl)pyrrolidin-1-yl)-3,3-dimethyl-1-oxobutan-2-yl)carbamoyl)benzo[b]thiophen-5-yl)methyl)phosphonic acid], for which the Ki was > 10 µM. The value for `CC(C)(C)[C@H](NC(=O)c1cc2cc(C(F)(F)P(=O)(O)O)ccc2s1)C(=O)N1CCC[C@H]1C(=O)Nc1ncc(C2CCOCC2)s1` [Compound 249, ((2-(((S)-3,3-dimethyl-1-oxo-1-((S)-2-((5-(tetrahydro-2H-pyran-4-yl)thiazol-2-yl)carbamoyl)pyrrolidin-1-yl)butan-2-yl)carbamoyl)benzo[b]thiophen-5-yl)difluoromethyl)phosphonic acid] was 1 to 10 µM. The value for `CC(C)(C)[C@H](NC(=O)c1cc2cc(C(F)(F)P(=O)(O)O)ccc2s1)C(=O)N1CCC[C@H]1C(=O)Nc1ncc(-c2cc3ccccc3[nH]2)s1` [Compound 250, ((2-(((S)-1-((S)-2-((5-(1H-indol-2-yl)thiazol-2-yl)carbamoyl)pyrrolidin-1-yl)-3,3-dimethyl-1-oxobutan-2-yl)carbamoyl)benzo[b]thiophen-5-yl)difluoromethyl)phosphonic acid] was > 10 µM. The value for `CC(C)c1cnc(NC(=O)[C@@H]2CCCN2C(=O)[C@@H](NC(=O)c2cc3cc(C(F)(F)P(=O)(O)O)ccc3s2)C(C)(C)C)s1` [Compound 251, (difluoro(2-(((S)-1-((S)-2-((5-isopropylthiazol-2-yl)carbamoyl)pyrrolidin-1-yl)-3,3-dimethyl-1-oxobutan-2-yl)carbamoyl)benzo[b]thiophen-5-yl)methyl)phosphonic acid] was > 10 µM; that for `CC(C)(C)c1cnc(NC(=O)[C@@H]2CCCN2C(=O)[C@@H](NC(=O)c2cc3cc(C(F)(F)P(=O)(O)O)ccc3s2)C(C)(C)C)s1` [Compound 252, ((2-(((S)-1-((S)-2-((5-(tert-butyl)thiazol-2-yl)carbamoyl)pyrrolidin-1-yl)-3,3-dimethyl-1-oxobutan-2-yl)carbamoyl)benzo[b]thiophen-5-yl)difluoromethyl)phosphonic acid] was > 10 µM. Turning to `CCCc1cnc(NC(=O)[C@@H]2CCCN2C(=O)[C@@H](NC(=O)c2cc3cc(C(F)(F)P(=O)(O)O)ccc3s2)C(C)(C)C)s1` [Compound 253, ((2-(((S)-3,3-dimethyl-1-oxo-1-((S)-2-((5-propylthiazol-2-yl)carbamoyl)pyrrolidin-1-yl)butan-2-yl)carbamoyl)benzo[b]thiophen-5-yl)difluoromethyl)phosphonic acid], the Ki was > 10 µM. The value for `CC(C)(C)[C@H](NC(=O)c1cc2cc(C(F)(F)P(=O)(O)O)ccc2s1)C(=O)N1CCC[C@H]1C(=O)Nc1ncc(C2CCCCC2)s1` [Compound 254, ((2-(((S)-1-((S)-2-((5-cyclohexylthiazol-2-yl)carbamoyl)pyrrolidin-1-yl)-3,3-dimethyl-1-oxobutan-2-yl)carbamoyl)benzo[b]thiophen-5-yl)difluoromethyl)phosphonic acid] was 1 to 10 µM; that for `CC(C)(C)[C@H](NC(=O)c1cc2cc(C(F)(F)P(=O)(O)O)ccc2s1)C(=O)N1CCC[C@H]1C(=O)Nc1ncc(-c2ccccc2)s1` [Compound 255, ((2-(((S)-3,3-dimethyl-1-oxo-1-((S)-2-((5-phenylthiazol-2-yl)carbamoyl)pyrrolidin-1-yl)butan-2-yl)carbamoyl)benzo[b]thiophen-5-yl)difluoromethyl)phosphonic acid] was 0.1 to 1 µM.

On to `Cc1ccccc1-c1cnc(NC(=O)[C@@H]2CCCN2C(=O)[C@@H](NC(=O)c2cc3cc(C(F)(F)P(=O)(O)O)ccc3s2)C(C)(C)C)s1` [Compound 256, ((2-(((S)-3,3-dimethyl-1-oxo-1-((S)-2-((5-(o-tolyl)thiazol-2-yl)carbamoyl)pyrrolidin-1-yl)butan-2-yl)carbamoyl)benzo[b]thiophen-5-yl)difluoromethyl)phosphonic acid], for which the Ki was in the range of 1 to 10 µM. As for `Cc1cccc(-c2cnc(NC(=O)[C@@H]3CCCN3C(=O)[C@@H](NC(=O)c3cc4cc(C(F)(F)P(=O)(O)O)ccc4s3)C(C)(C)C)s2)c1` [Compound 257, ((2-(((S)-3,3-dimethyl-1-oxo-1-((S)-2-((5-(m-tolyl)thiazol-2-yl)carbamoyl)pyrrolidin-1-yl)butan-2-yl)carbamoyl)benzo[b]thiophen-5-yl)difluoromethyl)phosphonic acid], the figure is 1 to 10 µM; as for `Cc1ccc(-c2cnc(NC(=O)[C@@H]3CCCN3C(=O)[C@@H](NC(=O)c3cc4cc(C(F)(F)P(=O)(O)O)ccc4s3)C(C)(C)C)s2)cc1` [Compound 258, ((2-(((S)-3,3-dimethyl-1-oxo-1-((S)-2-((5-(p-tolyl)thiazol-2-yl)carbamoyl)pyrrolidin-1-yl)butan-2-yl)carbamoyl)benzo[b]thiophen-5-yl)difluoromethyl)phosphonic acid], > 10 µM; as for `CC(C)(C)[C@H](NC(=O)c1cc2cc(C(F)(F)P(=O)(O)O)ccc2s1)C(=O)N1CCC[C@H]1C(=O)Nc1ncc(-c2ccccc2F)s1` [Compound 259, (difluoro(2-(((S)-1-((S)-2-((5-(2-fluorophenyl)thiazol-2-yl)carbamoyl)pyrrolidin-1-yl)-3,3-dimethyl-1-oxobutan-2-yl)carbamoyl)benzo[b]thiophen-5-yl)methyl)phosphonic acid], 1 to 10 µM. `CC(C)(C)[C@H](NC(=O)c1cc2cc(C(F)(F)P(=O)(O)O)ccc2s1)C(=O)N1CCC[C@H]1C(=O)Nc1ncc(-c2cccc(F)c2)s1` [Compound 260, (difluoro(2-(((S)-1-((S)-2-((5-(3-fluorophenyl)thiazol-2-yl)carbamoyl)pyrrolidin-1-yl)-3,3-dimethyl-1-oxobutan-2-yl)carbamoyl)benzo[b]thiophen-5-yl)methyl)phosphonic acid]: the inhibition constant Ki fell in the range of 0.1 to 1 µM. The value for `CC(C)(C)[C@H](NC(=O)c1cc2cc(C(F)(F)P(=O)(O)O)ccc2s1)C(=O)N1CCC[C@H]1C(=O)Nc1ncc(-c2ccc(F)cc2)s1` [Compound 261, (difluoro(2-(((S)-1-((S)-2-((5-(4-fluorophenyl)thiazol-2-yl)carbamoyl)pyrrolidin-1-yl)-3,3-dimethyl-1-oxobutan-2-yl)carbamoyl)benzo[b]thiophen-5-yl)methyl)phosphonic acid] was 1 to 10 µM; that for `CC(C)(C)[C@H](NC(=O)c1cc2cc(C(F)(F)P(=O)(O)O)ccc2s1)C(=O)N1CCC[C@H]1C(=O)Nc1ncc(-c2cccc(Cl)c2)s1` [Compound 262, ((2-(((S)-1-((S)-2-((5-(3-chlorophenyl)thiazol-2-yl)carbamoyl)pyrrolidin-1-yl)-3,3-dimethyl-1-oxobutan-2-yl)carbamoyl)benzo[b]thiophen-5-yl)difluoromethyl)phosphonic acid] was 1 to 10 µM. As to `CC(C)(C)[C@H](NC(=O)c1cc2cc(C(F)(F)P(=O)(O)O)ccc2s1)C(=O)N1CCC[C@H]1C(=O)Nc1ncc(-c2ccc(Cl)cc2)s1` [Compound 263, ((2-(((S)-1-((S)-2-((5-(4-chlorophenyl)thiazol-2-yl)carbamoyl)pyrrolidin-1-yl)-3,3-dimethyl-1-oxobutan-2-yl)carbamoyl)benzo[b]thiophen-5-yl)difluoromethyl)phosphonic acid], the Ki was > 10 µM. As for `CC(C)(C)[C@H](NC(=O)c1cc2cc(C(F)(F)P(=O)(O)O)ccc2s1)C(=O)N1CCC[C@H]1C(=O)Nc1ncc(-c2ccc(Br)cc2)s1` [Compound 264, ((2-(((S)-1-((S)-2-((5-(4-bromophenyl)thiazol-2-yl)carbamoyl)pyrrolidin-1-yl)-3,3-dimethyl-1-oxobutan-2-yl)carbamoyl)benzo[b]thiophen-5-yl)difluoromethyl)phosphonic acid], the figure is 1 to 10 µM. In turn, `CN(C(=O)[C@@H]1CCCCCN1C(=O)[C@@H](NC(=O)c1cc2cc(C(F)(F)P(=O)(O)O)ccc2s1)C(C)(C)C)c1ncc(-c2ccccc2)s1` [Compound 303, ((2-(((S)-3,3-dimethyl-1-((S)-2-(methyl(5-phenylthiazol-2-yl)carbamoyl)azepan-1-yl)-1-oxobutan-2-yl)carbamoyl)benzo[b]thiophen-5-yl)difluoromethyl)phosphonic acid] had a Ki of 1 to 10 µM.
